From ChEMBL document CHEMBL3352398, “2-(2-Bromophenyl)-formononetin and 2-heptyl-formononetin are PPARγ partial agonists and reduce lipid accumulation in 3T3-L1 adipocytes” (Bioorg Med Chem, 2014)
pIC50: −log10 of the molar value. The source made the active and inactive calls. The rule behind the calls is not given here.

What was measured:
3T3-L1 [1] = experiment: Effect on adipogenesis in mouse 3T3L1 cells in DI media assessed as increase in fat-laden mature adipocytes after 8 days by oil red o assay; format: functional, cell-based
3T3-L1 [2] = experiment: Effect on adipogenesis in mouse 3T3L1 cells assessed as reduction in Pparg gene expression at 5 to 50 uM after 8 days by real time quantitative PCR analysis relative to vehicle-treated control; format: functional, cell-based
[3] = Cytotoxicity against mouse 3T3L1 cells assessed as effect on lactate dehydrogenase release at 5 to 50 uM measured on day 8; format: cell-based; conditions: 3t3-l1, 50 µM
3T3-L1 [4] = experiment: Effect on adipogenesis in mouse 3T3L1 cells assessed as reduction in Pparg gene expression at 5 to 50 uM after 4 days by real time quantitative PCR analysis relative to vehicle-treated control; format: functional, cell-based
[5] = Effect on adipogenesis in mature mouse 3T3L1 cells assessed as upregulation of Sirt1 gene expression; format: functional, cell-based; conditions: 3T3-L1
[6] = Cytotoxicity against mouse 3T3L1 cells assessed as effect on lactate dehydrogenase release at 5 to 50 uM measured on day 2; format: cell-based; conditions: 3t3-l1, 50 µM
3T3-L1 [7] = experiment: Effect on adipogenesis in mouse 3T3L1 cells assessed as reduction in Fabp4 gene expression at 5 to 50 uM after 8 days by real time quantitative PCR analysis relative to vehicle-treated control; format: functional, cell-based
[8] = molecular target: T1, Peroxisome proliferator-activated receptor gamma (Homo sapiens) (UniProt P37231); experiment: Competitive binding to human GST-tagged PPAR-gamma at <=100 uM by TR-FRET assay
T1 sequence (whole entry): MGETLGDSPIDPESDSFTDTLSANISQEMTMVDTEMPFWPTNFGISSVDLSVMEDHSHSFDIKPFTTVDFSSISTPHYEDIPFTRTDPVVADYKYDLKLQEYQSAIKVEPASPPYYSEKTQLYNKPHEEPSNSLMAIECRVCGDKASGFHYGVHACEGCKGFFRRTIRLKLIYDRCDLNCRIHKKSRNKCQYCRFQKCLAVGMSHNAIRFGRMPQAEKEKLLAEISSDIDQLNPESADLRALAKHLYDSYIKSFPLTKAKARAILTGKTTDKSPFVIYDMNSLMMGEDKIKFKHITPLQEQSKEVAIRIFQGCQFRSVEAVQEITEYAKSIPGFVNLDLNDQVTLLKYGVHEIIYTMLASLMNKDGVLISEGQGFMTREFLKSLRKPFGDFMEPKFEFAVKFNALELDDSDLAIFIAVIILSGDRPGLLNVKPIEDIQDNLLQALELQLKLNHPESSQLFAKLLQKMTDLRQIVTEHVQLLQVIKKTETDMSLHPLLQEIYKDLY

[9] = Cytotoxicity against mouse 3T3L1 cells assessed as LDH release at 50 uM after 48 hrs; format: cell-based; conditions: 3t3-l1, 48 h
[10] = molecular target: Peroxisome proliferator-activated receptor gamma (Mus musculus) (UniProt P37238); experiment: Partial agonist activity at PPAR-gamma in mouse embryo fibroblast assessed as reduction in activation at 5 to 50 uM by transactivation assay in presence of rosiglitazone
3T3-L1 [11] = experiment: Effect on adipogenesis in mouse 3T3L1 cells assessed as increase in Srebf1 gene expression at 5 to 50 uM after 8 days by real time quantitative PCR analysis relative to vehicle-treated control; format: functional, cell-based
3T3-L1 [12] = experiment: Effect on adipogenesis in mouse 3T3L1 cells assessed as reduction in Fabp4 gene expression at 5 to 50 uM after 4 days by real time quantitative PCR analysis relative to vehicle-treated control; format: functional, cell-based
3T3-L1 [13] = experiment: Effect on adipogenesis in mouse 3T3L1 cells assessed as reduction in Cebpa gene expression at 5 to 50 uM after 8 days by real time quantitative PCR analysis relative to vehicle-treated control; format: functional, cell-based
3T3-L1 [14] = experiment: Effect on adipogenesis in mouse 3T3L1 cells assessed as reduction in Adipoq gene expression at 5 to 50 uM after 4 days by real time quantitative PCR analysis relative to vehicle-treated control; format: functional, cell-based
3T3-L1 [15] = experiment: Induction of lipolysis in mouse 3T3L1 cells assessed as up-regulation of Atgl gene exression by real time-qPCR analysis; format: functional, cell-based
3T3-L1 [16] = experiment: Effect on lipolysis in mouse 3T3L1 cells assessed as reduction in glycerol level at 5 to 50 uM after 48 hrs by UV-Vis spectrophotometry; format: functional, cell-based
3T3-L1 [17] = experiment: Effect on adipogenesis in mouse 3T3L1 cells in DI media assessed as increase in lipid accumulation after 8 days by fluorescence-based AdipoRed assay; format: functional, cell-based
3T3-L1 [18] = experiment: Effect on adipogenesis in mouse 3T3L1 cells assessed as increase in lipid accumulation at 5 to 50 uM measured on day 8 by oil red o assay; format: functional, cell-based
3T3-L1 [19] = experiment: Activation of AMPK in mouse 3T3L1 cells assessed as AMPK phosphorylation at 50 uM after 5 to 48 hrs by Western blotting analysis; format: cell-based
3T3-L1 [20] = experiment: Effect on adipogenesis in mouse 3T3L1 cells assessed as reduction in Srebf1 gene expression at 5 to 50 uM after 4 days by real time quantitative PCR analysis relative to vehicle-treated control; format: functional, cell-based
3T3-L1 [21] = experiment: Effect on adipogenesis in mouse 3T3L1 cells assessed as increase in lipid accumulation at 5 to 50 uM measured on day 8 by fluorescence-based AdipoRed assay; format: functional, cell-based
3T3-L1 [22] = experiment: Reduction in triglyceride release in mouse 3T3L1 cells at 50 uM after 48 hrs by oil red o assay; format: functional, cell-based
[23] = molecular target: T2, Peroxisome proliferator-activated receptor gamma (Mus musculus) (UniProt P37238); experiment: Agonist activity at PPAR-gamma in mouse embryo fibroblast at 5 to 50 uM by transactivation assay relative to rosiglitazone
T2 sequence (whole entry): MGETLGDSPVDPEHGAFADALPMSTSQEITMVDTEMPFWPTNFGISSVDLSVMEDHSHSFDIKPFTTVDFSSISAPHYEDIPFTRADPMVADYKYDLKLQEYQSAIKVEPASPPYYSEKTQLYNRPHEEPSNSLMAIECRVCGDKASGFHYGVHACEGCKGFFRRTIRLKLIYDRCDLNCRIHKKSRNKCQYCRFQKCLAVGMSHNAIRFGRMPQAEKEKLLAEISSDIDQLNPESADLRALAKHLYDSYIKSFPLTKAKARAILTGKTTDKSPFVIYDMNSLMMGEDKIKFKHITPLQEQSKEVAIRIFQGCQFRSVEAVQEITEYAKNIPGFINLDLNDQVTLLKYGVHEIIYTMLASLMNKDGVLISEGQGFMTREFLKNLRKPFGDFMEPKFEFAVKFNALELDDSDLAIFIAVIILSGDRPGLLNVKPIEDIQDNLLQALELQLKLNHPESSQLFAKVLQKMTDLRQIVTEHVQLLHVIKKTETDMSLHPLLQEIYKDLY

3T3-L1 [24] = experiment: Effect on adipogenesis in mouse 3T3L1 cells assessed as reduction in Adipoq gene expression at 5 to 50 uM after 8 days by real time quantitative PCR analysis relative to vehicle-treated control; format: functional, cell-based
3T3-L1 [25] = experiment: Effect on adipogenesis in mouse 3T3L1 cells assessed as reduction in Cebpa gene expression at 5 to 50 uM after 4 days by real time quantitative PCR analysis relative to vehicle-treated control; format: functional, cell-based
3T3-L1 [26] = experiment: Reduction in triglyceride release in mouse 3T3L1 cells at 50 uM after 48 hrs by fluorescence-based AdipoRed assay; format: functional, cell-based
3T3-L1 [27] = experiment: Effect on adipogenesis in mouse 3T3L1 cells in DI media assessed as increase in lipid accumulation at <25 uM after 8 days by fluorescence-based AdipoRed assay; format: functional, cell-based
3T3-L1 [28] = experiment: Induction of lipolysis in mouse 3T3L1 cells assessed as up-regulation of Acox1 gene exression by real time-qPCR analysis; format: functional, cell-based
3T3-L1 [29] = experiment: Effect on adipogenesis in mouse 3T3L1 cells in DI media assessed as reduction in fat-laden mature adipocytes at 50 uM after 8 days by oil red o assay; format: functional, cell-based
[30] = molecular target: T2, Peroxisome proliferator-activated receptor gamma (Mus musculus); experiment: Agonist activity at PPAR-gamma in mouse embryo fibroblast by transactivation assay relative to rosiglitazone
3T3-L1 [31] = experiment: Reduction of adipogenesis in mouse 3T3L1 cells assessed as decrease in lipid accumulation measured on day 8 by oil red o assay; format: functional, cell-based
[32] = molecular target: T3, Peroxisome proliferator-activated receptor alpha (Homo sapiens) (UniProt Q07869); experiment: Agonist activity at PPAR-alpha (unknown origin) by transactivation assay
T3 sequence (whole entry): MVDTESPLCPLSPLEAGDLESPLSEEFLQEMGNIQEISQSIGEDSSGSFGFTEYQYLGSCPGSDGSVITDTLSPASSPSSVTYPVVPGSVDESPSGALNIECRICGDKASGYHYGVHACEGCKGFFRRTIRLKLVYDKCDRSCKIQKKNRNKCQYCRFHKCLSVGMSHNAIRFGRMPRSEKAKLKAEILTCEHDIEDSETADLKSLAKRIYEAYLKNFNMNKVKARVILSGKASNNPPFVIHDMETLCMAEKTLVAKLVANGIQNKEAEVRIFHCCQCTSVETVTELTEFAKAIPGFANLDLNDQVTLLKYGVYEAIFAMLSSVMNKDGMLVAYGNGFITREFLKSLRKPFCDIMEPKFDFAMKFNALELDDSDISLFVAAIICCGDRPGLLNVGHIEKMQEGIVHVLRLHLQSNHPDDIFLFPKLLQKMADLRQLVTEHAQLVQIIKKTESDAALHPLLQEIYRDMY

3T3-L1 [33] = experiment: Reduction of adipogenesis in mouse 3T3L1 cells assessed as decrease in lipid accumulation measured on day 8 by fluorescence-based AdipoRed assay; format: functional, cell-based
3T3-L1 [34] = experiment: Reduction in lipogenesis in mouse 3T3L1 cells assessed as down regulation of Scd1 gene exression by real time-qPCR analysis; format: functional, cell-based
3T3-L1 [35] = experiment: Effect on adipogenesis in mouse 3T3L1 cells in DI media assessed as reduction in lipid accumulation at 50 uM measured on day 8 by fluorescence-based AdipoRed assay; format: functional, cell-based
3T3-L1 [36] = experiment: Effect on adipogenesis in mouse 3T3L1 cells in DI media assessed as increase in fat-laden mature adipocytes at <25 uM after 8 days by oil red o assay; format: functional, cell-based
[37] = molecular target: Peroxisome proliferator-activated receptor gamma (Mus musculus) (UniProt P37238); experiment: Partial agonist activity at PPAR-gamma in mouse embryo fibroblast assessed as reduction in activation by transactivation assay in presence of rosiglitazone
[38] = molecular target: T4, Peroxisome proliferator-activated receptor delta (Homo sapiens) (UniProt Q03181); experiment: Agonist activity at PPAR-delta (unknown origin) by transactivation assay
T4 sequence (whole entry): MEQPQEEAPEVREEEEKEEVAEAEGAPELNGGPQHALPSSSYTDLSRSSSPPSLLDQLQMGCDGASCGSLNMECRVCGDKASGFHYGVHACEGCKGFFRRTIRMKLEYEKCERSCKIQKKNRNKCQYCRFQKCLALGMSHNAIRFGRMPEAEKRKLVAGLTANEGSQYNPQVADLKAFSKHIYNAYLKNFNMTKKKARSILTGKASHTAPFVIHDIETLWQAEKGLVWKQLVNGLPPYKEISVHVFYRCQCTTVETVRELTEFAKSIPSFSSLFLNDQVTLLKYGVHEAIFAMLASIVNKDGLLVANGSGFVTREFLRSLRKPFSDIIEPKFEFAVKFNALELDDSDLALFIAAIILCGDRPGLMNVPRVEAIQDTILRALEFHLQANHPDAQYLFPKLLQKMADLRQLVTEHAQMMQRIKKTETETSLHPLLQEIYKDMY

3T3-L1 [39] = experiment: Activation of AMPK in mouse 3T3L1 cells assessed as AMPK phosphorylation at 500 uM after 5 hrs by Western blotting analysis; format: cell-based
[40] = molecular target: T5, Peroxisome proliferator-activated receptor gamma (Homo sapiens, UniProt P37231); experiment: Binding affinity to PPAR-gamma (unknown origin)
T5 sequence (P37231 whole entry): T1 sequence (whole entry)

COc1ccc(-c2coc3cc(O)ccc3c2=O)cc1 [FORMONONETIN]
Activity (3T3-L1 [1]): Dose-dependent effect | Activity (3T3-L1 [2]): Active | Activity [3]: Non-toxic | Activity (3T3-L1 [4]): Active | Activity [5]: inactive | Activity [6]: Non-toxic | Activity (3T3-L1 [7]): Active | Activity [8]: inactive | Activity [9]: Non-toxic | Activity [10]: Active | Activity (3T3-L1 [11]): inactive | Activity (3T3-L1 [12]): Active | Activity (3T3-L1 [13]): Active | Activity (3T3-L1 [14]): Active | Activity (3T3-L1 [15]): Active | Activity (3T3-L1 [16]): Active | Activity (3T3-L1 [17]): Dose-dependent effect | Activity (3T3-L1 [18]): Active | Activity (3T3-L1 [19]): inactive | Activity (3T3-L1 [20]): inactive | Activity (3T3-L1 [21]): Active | Activity (3T3-L1 [22]): inactive | Activity [23]: inactive | Activity (3T3-L1 [24]): Active | Activity (3T3-L1 [25]): Active | Activity (3T3-L1 [26]): inactive

COc1ccc(-c2c(-c3ccccc3Br)oc3cc(O)ccc3c2=O)cc1
Activity (3T3-L1 [27]): Active | Activity [3]: Non-toxic | Activity [5]: inactive | Activity [6]: Non-toxic | Activity [8]: Active | Activity (3T3-L1 [28]): Active | Activity (3T3-L1 [29]): Active | Activity [30]: Dose-dependent effect | Activity [9]: Toxic | Activity (3T3-L1 [31]): Dose-dependent effect | Activity (3T3-L1 [16]): Active | Activity [32]: inactive | Activity (3T3-L1 [33]): Dose-dependent effect | Activity (3T3-L1 [34]): Active | Activity (3T3-L1 [19]): inactive | Activity (3T3-L1 [35]): Active | Activity (3T3-L1 [36]): Active | Activity [37]: Dose-dependent effect | Activity (3T3-L1 [22]): Active | Activity [23]: 4% | Activity [38]: inactive | Activity (3T3-L1 [26]): Active

NC(=O)c1ncn([C@@H]2O[C@H](CO)[C@@H](O)[C@H]2O)c1N
Activity (3T3-L1 [39]): Active

COc1ccc(C2COc3cc(O)ccc3C2=O)cc1 (stereo unspecified)
pIC50 [40]: 3.91

COc1ccc(C(C)C(=O)c2ccc(O)cc2O)cc1 (stereo unspecified)
pIC50 [40]: 4.59
